In patent US9586951B2 (FUJIFILM Corporation, priority 2013, dated 2017):

The molecules below were run against T1, ATM (Homo sapiens, UniProt Q13315) (assay: ATM inhibition test (phosphorylation of Chk2 generated by ionizing radiation, AlphaScreen SureFire)). Conditions: phosphorylated Chk2 in NCI-H460 cells, ionizing radiation 8Gy, 1 hour after test compound treatment; read-out: ATM inhibitory activity.
T1 construct: detecting phosphorylation of Chk2 in a human non-small cell lung cancer cell line NCI-H460 (ATCC company); host or cells: NCI-H460 human non-small cell lung cancer cells
T1 sequence (Q13315 whole entry): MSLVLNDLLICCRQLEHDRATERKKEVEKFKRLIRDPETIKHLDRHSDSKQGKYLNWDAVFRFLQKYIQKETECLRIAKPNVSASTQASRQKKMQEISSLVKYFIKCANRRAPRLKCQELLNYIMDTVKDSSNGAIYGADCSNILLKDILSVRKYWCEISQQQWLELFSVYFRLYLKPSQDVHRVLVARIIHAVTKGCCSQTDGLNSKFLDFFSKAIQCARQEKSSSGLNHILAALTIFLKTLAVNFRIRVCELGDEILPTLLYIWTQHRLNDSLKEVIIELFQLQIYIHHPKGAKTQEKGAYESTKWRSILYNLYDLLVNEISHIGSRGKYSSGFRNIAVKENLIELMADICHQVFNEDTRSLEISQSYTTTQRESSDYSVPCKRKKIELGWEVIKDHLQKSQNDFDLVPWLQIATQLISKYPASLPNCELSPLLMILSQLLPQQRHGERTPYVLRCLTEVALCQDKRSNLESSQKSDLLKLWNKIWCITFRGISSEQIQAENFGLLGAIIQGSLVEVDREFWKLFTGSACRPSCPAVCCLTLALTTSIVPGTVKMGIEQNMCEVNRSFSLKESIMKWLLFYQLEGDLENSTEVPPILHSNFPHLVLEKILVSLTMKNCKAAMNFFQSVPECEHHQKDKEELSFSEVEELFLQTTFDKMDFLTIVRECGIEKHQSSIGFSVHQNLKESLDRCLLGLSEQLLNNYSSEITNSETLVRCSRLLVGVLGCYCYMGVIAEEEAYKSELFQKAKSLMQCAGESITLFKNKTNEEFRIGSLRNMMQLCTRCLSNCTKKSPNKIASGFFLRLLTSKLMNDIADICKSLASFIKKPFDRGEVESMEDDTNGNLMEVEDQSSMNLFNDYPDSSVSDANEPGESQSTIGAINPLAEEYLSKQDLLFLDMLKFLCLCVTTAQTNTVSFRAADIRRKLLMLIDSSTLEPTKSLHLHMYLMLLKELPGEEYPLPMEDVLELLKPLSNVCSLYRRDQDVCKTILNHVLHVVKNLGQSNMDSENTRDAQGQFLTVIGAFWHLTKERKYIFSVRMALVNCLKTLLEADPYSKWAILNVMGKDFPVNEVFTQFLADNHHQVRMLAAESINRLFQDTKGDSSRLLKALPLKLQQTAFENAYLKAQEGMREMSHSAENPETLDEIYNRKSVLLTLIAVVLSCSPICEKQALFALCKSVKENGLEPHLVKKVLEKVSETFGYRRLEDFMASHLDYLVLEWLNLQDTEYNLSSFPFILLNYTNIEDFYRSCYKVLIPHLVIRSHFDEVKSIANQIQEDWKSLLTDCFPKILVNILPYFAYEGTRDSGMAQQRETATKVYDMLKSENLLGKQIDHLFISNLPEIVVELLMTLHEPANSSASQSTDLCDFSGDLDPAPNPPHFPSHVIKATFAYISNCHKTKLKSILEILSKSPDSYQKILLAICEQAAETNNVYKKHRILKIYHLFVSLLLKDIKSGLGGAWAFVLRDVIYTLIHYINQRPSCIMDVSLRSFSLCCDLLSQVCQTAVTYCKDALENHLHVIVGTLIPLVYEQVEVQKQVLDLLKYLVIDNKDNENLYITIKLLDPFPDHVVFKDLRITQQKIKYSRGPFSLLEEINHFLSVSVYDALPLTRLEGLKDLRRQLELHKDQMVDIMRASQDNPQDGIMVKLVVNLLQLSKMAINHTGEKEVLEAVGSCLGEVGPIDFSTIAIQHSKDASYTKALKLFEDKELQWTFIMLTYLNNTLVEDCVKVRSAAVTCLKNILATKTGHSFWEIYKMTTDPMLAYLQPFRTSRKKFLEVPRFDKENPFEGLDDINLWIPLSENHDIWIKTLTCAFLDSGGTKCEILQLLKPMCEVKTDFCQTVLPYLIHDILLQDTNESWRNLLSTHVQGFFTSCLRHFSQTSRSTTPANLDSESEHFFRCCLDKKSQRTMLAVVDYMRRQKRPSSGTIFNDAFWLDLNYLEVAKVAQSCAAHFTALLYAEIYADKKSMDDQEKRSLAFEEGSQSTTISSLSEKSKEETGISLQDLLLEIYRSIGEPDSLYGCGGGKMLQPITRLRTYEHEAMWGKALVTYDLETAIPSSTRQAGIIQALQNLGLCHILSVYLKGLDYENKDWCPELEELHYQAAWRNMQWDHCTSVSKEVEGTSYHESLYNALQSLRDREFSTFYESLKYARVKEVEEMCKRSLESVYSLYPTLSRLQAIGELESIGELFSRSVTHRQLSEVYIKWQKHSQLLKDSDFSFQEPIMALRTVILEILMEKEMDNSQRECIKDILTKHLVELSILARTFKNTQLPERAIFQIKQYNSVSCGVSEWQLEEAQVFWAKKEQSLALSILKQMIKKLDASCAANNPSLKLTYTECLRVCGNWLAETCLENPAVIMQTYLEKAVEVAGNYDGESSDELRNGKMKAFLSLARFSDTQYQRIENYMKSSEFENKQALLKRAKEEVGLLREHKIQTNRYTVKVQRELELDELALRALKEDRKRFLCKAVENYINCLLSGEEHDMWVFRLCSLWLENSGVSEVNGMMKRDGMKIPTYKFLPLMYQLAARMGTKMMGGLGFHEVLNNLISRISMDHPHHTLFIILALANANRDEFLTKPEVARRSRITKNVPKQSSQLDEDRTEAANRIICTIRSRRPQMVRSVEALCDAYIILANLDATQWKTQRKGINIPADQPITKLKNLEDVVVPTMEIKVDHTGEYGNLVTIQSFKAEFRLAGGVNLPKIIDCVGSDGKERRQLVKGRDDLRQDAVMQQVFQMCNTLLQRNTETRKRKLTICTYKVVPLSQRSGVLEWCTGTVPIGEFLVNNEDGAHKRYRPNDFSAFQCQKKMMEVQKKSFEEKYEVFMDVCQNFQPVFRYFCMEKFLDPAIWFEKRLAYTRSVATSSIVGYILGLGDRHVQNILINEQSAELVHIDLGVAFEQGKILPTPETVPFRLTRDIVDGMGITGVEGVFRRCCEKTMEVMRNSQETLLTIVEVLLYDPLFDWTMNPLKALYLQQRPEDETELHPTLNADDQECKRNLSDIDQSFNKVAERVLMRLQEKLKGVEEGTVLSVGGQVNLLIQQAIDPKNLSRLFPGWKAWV
Type: cell-based
Procedure, shortened: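 In NCI-H460 cells, radiation-triggered Chk2 phosphorylation (8Gy, 1 h) is detected by AlphaScreen SureFire following 1 h compound exposure.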

`CC(Nc1ccc2c(c1)Sc1cccc(-c3cc(N4CCOCC4)cc(=O)[nH]3)c1S2)c1ccnc(Cl)n1` (stereo not shown) [Example 1-12-81, 6-(7-((1-(2-Chloropyrimidin-4-yl)ethyl)amino)thianthren-1-yl)-4-morpholino pyridin-2 (1H)-one] and `CNCc1ccnc(C(C)Nc2ccc3c(c2)Sc2cccc(-c4cc(N5CCOCC5)cc(=O)[nH]4)c2S3)n1` (stereo not shown) [Example 1-20-1, 6-(7-((1-(4-((methylamino)methyl)pyrimidin-2-yl)ethyl)amino)thianthren-1-yl)-4-morpholinopyridin-2(1H)-one] fall in the same range of IC50: 100 to 500 nM for the first, 100 to 500 nM for the second.

`N#Cc1ccc(CCN2CCC(Nc3ccc4c(c3)Cc3cccc(-c5cc(N6CCOCC6)cc(=O)[nH]5)c3O4)CC2)cc1` [Example 2-30-19, 4-(2-(4-((5-(4-Morpholino-6-oxo-1,6-dihydropyridin-2-yl)-9H-xanthen-2-yl)amino)piperidin-1-yl)ethyl) benzonitrile] and `COCc1ccc(CCN2CCC(Nc3ccc4c(c3)Cc3cccc(-c5cc(N6CCOCC6)cc(=O)[nH]5)c3O4)CC2)cc1` [Example 2-30-20, 6-(7-((1-(4-(Methoxymethyl)phenethyl)piperidin-4-yl)amino)-9H-xanthen-4-yl)-4-morpholino pyridin-2(1H)-one] fall in the same range of IC50: 500 to 2000 nM for the first, 500 to 2000 nM for the second.

`O=c1cc(N2CCOCC2)cc(-c2cccc3c2Oc2ccc(NCc4cccnc4)cc2CC3)[nH]1` [Example 2-51-2, 4-Morpholino-6-(8-((pyridin-3-ylmethyl)amino)-10,11-dihydrodibenz[b,f]oxepin-4-yl)pyridin-2(1H)-one] and `COc1cncc(CNc2ccc3c(c2)Cc2cccc(-c4cc(N5CCOCC5)cc(=O)[nH]4)c2O3)c1` [Example 2-3-8, 6-(7-(((5-Methoxypyridin-3-yl)methyl)amino)-9H-xanthen-4-yl)-4-morpholino pyridin-2(1H)-one] fall in the same range of IC50: 100 to 500 nM for the first, 100 to 500 nM for the second.

`O=c1cc(N2CCOCC2)cc(-c2cccc3c2Oc2ccc(NCc4cccc(Cl)n4)cc2C3)[nH]1` [Example 2-14-2, 6-(7-(((6-Chloropyridin-2-yl)methyl)amino)-9H-xanthen-4-yl)-4-morpholino pyridin-2(1H)-one] and `Cc1cccc(CNc2ccc3c(c2)Cc2cccc(-c4cc(N5CCOCC5)cc(=O)[nH]4)c2O3)n1` [Example 2-2-24, 6-(7-(((6-Methylpyridin-2-yl)methyl)amino)-9H-xanthen-4-yl)-4-morpholino pyridin-2(1H)-one] fall in the same range of IC50: 100 to 500 nM for the first, 100 to 500 nM for the second.

First: CCCC(Nc1ccc2c(c1)Cc1cccc(-c3cc(N4CCOCC4)cc(=O)[nH]3)c1O2)c1cncc(OC)c1 (stereo not shown) [Example 2-14-17, 6-(7-((1-(5-Methoxypyridin-3-yl)butyl)amino)-9H-xanthen-4-yl)-4-morpholino pyridin-2(1H)-one]
Second: COc1cc(C(C)Nc2ccc3c(c2)Cc2cccc(-c4cc(N5CCOCC5)cc(=O)[nH]4)c2O3)ccn1 (stereo not shown) [Example 2-14-26, 6-(7-((1-(2-Methoxypyridin-4-yl)ethyl)amino)-9H-xanthen-4-yl)-4-morpholino pyridin-2(1H)-one]
The IC50 of the first is higher: 100 to 500 nM for the first, under 100 nM for the second. The second is the more potent here.

First: CCNc1cccc(CNc2ccc3c(c2)Cc2cccc(-c4cc(N5CCOCC5)cc(=O)[nH]4)c2O3)n1 [Example 2-6-2, 6-(7-(((6-(Ethylamino)pyridin-2-yl)methyl)amino)-9H-xanthen-4-yl)-4-morpholinopyridin-2(1H)-one]
Second: O=c1cc(N2CCOCC2)cc(-c2cccc3c2Oc2ccc(NCc4ncccn4)cc2C3)[nH]1 [Example 2-3-4, 4-Morpholino-6-(7-((pyrimidin-2-ylmethyl)amino)-9H-xanthen-4-yl) pyridin-2(1H)-one]
The IC50 of the first is lower: 100 to 500 nM for the first, 500 to 2000 nM for the second. The first is the more potent here.

`COc1ccncc1CN1CCC(Nc2ccc3c(c2)Sc2cccc(-c4cc(N5CCOCC5)cc(=O)[nH]4)c2S3)C1` (stereo not shown) [Example 1-24-10, 6-(7-((1-((4-Methoxypyridin-3-yl)methyl)pyrrolidin-3-yl)amino)thianthren-1-yl)-4-morpholino pyridin-2(1H)-one] and `COc1ccncc1CNc1ccc2c(c1)Sc1cccc(-c3cc(N4CCOCC4)cc(=O)[nH]3)c1S2` [Example 1-12-23, 6-(7-(((4-Methoxypyridin-3-yl)methyl)amino)thianthren-1-yl)-4-morpholino pyridin-2 (1H)-one] fall in the same range of IC50: 100 to 500 nM for the first, 100 to 500 nM for the second.

`CC(Nc1ccc2c(c1)Sc1cccc(-c3cc(N4CCOCC4)cc(=O)[nH]3)c1S2)C(=O)N1CCCC1` (stereo not shown) [Example 1-18-4] and `CC(CN1CCCC(O)C1)Nc1ccc2c(c1)Sc1cccc(-c3cc(N4CCOCC4)cc(=O)[nH]3)c1S2` (stereo not shown) [Example 1-13-6, 6-(7-((1-(3-Hydroxypiperidin-1-yl)propan-2-yl)amino)thianthren-1-yl)-4-morpholino pyridin-2(1H)-one] fall in the same range of IC50: 100 to 500 nM for the first, 100 to 500 nM for the second.

Compared with `O=c1cc(N2CCOCC2)cc(-c2cccc3c2Oc2ccc(NC4CCN(CCc5ccncc5)CC4)cc2C3)[nH]1` [Example 2-30-7, 4-Morpholino-6-(7-((1-(2-(pyridin-4-yl)ethyl)piperidin-4-yl)amino)-9H-xanthen-4-yl)pyridin-2(1H)-one], `COc1ccccc1CCN1CCC(Nc2ccc3c(c2)Cc2cccc(-c4cc(N5CCOCC5)cc(=O)[nH]4)c2O3)CC1` [Example 2-30-10, 6-(7-((1-(2-Methoxyphenethyl)piperidin-4-yl)amino)-9H-xanthen-4-yl)-4-morpholino pyridin-2(1H)-one] is higher in IC50: 100 to 500 nM for the first, 500 to 2000 nM for the second.

`Cc1ccc(C(Nc2ccc3c(c2)Sc2cccc(-c4cc(N5CCOCC5)cc(=O)[nH]4)c2S3)[C@H]2CCN(C)C2)nc1` (single isomer, unassigned) [Example 1-56-14] and `Cc1ccc(C(Nc2ccc3c(c2)Sc2cccc(-c4cc(N5CCOCC5)cc(=O)[nH]4)c2S3)[C@@H]2CCCN2C)nc1` (single isomer, unassigned) [Example 1-56-3] cannot be ordered by IC50: under 100 nM for the first, under 100 nM for the second.

`CN(C)[C@H]1CC[C@H](N(C)c2ccc3c(c2)Cc2cccc(-c4cc(N5CCOCC5)cc(=O)[nH]4)c2O3)CC1` [Example 2-10, 6-(7-(((Trans)-4-(dimethylamino)cyclohexyl)(methyl)amino)-9H-xanthen-4-yl)-4-morpholinopyridin-2(1H)-one] and `CC(Nc1ccc2c(c1)Cc1cccc(-c3cc(N4CCOCC4)cc(=O)[nH]3)c1O2)C1CC1` (stereo not shown) [Example 2-14-70, 6-(7-((1-Cyclopropylethyl)amino)-9H-xanthen-4-yl)-4-morpholino pyridin-2(1H)-one] fall in the same range of IC50: 500 to 2000 nM for the first, 500 to 2000 nM for the second.

`N#Cc1ccnc(CNc2ccc3c(c2)Cc2ccnc(-c4cc(N5CCOCC5)cc(=O)[nH]4)c2O3)c1` [Example 2-41-16, 2-(((1-(4-Morpholino-6-oxo-1,6-dihydropyridin-2-yl)-5H-chromeno[2,3-c]pyridin-7-yl)amino)methyl)isonicotinonitrile] and `Cc1ccnc(CNc2ccc3c(c2)Cc2ccnc(-c4cc(N5CCOCC5)cc(=O)[nH]4)c2O3)c1` [Example 2-41-7, 6-(7-(((4-Methylpyridin-2-yl)methyl)amino)-5H-chromeno [2,3-c]pyridin-1-yl)-4-morpholino pyridin-2(1H)-one] fall in the same range of IC50: 100 to 500 nM for the first, 100 to 500 nM for the second.

`O=c1cc(N2CCOCC2)cc(-c2cccc3c2Oc2ccc(NCc4ccnc(Cl)c4F)cc2C3)[nH]1` [Example 2-2-19, 6-(7-(((2-Chloro-3-fluoropyridin-4-yl)methyl)amino)-9H-xanthen-4-yl)-4-morpholino pyridin-2(1H)-one] and `O=c1cc(N2CCOCC2)cc(-c2cccc3c2Oc2ccc(NC4CCN(Cc5cncc(F)c5)CC4)cc2C3)[nH]1` [Example 2-28-18, 6-(7-((1-((5-Fluoropyridin-3-yl)methyl)piperidin-4-yl)amino)-9H-xanthen-4-yl)-4-morpholino pyridin-2(1H)-one] fall in the same range of IC50: 100 to 500 nM for the first, 100 to 500 nM for the second.

First: O=c1cc(N2CCOCC2)cc(-c2cccc3c2Oc2cccc(N4CCOCC4)c2C3)[nH]1 [Example 2-60, 4-Morpholino-6-(8-morpholino-9H-xanthen-4-yl)pyridin-2(1H)-one]
Second: O=c1cc(N2CCOCC2)cc(-c2cccc3c2Oc2ccc([N+](=O)[O-])cc2S3)[nH]1 [Example 4-1, 4-Morpholino-6-(8-nitrophenoxathiin-4-yl)pyridin-2(1H)-one]
The IC50 of the first is lower: 100 to 500 nM for the first, 500 to 2000 nM for the second.

`CC(=O)N1CCC(Nc2ccc3c(c2)Sc2cccc(-c4cc(N5CCOCC5)cc(=O)[nH]4)c2S3)CC1` [Example 1-12-115, 6-(7-((1-Acetylpiperidin-4-yl)amino)thianthren-1-yl)-4-morpholino pyridin-2 (1H)-one] and `CN1CCC(CNc2ccc3c(c2)Sc2cccc(-c4cc(N5CCOCC5)cc(=O)[nH]4)c2S3)CC1` [Example 1-12-31, 6-(7-(((1-Methylpiperidin-4-yl)methyl)amino)thianthren-1-yl)-4-morpholino pyridin-2(1H)-one] fall in the same range of IC50: 100 to 500 nM for the first, 100 to 500 nM for the second.

First: COCCN(C)CCC(Nc1ccc2c(c1)Sc1cccc(-c3cc(N4CCOCC4)cc(=O)[nH]3)c1S2)c1ccc(C)cn1 (single isomer, unassigned) [Example 10-3-3, 6-(7-((3-((2-Methoxyethyl) (methyl)amino)-1-(5-methylpyridin-2-yl)propyl)amino)thiarnthren-l-yl)-4-morpholino pyridin-2(1H)-one]
Second: CN1CC(CNc2ccc3c(c2)Sc2cccc(-c4cc(N5CCOCC5)cc(=O)[nH]4)c2S3)C1 [Example 1-2-1, 6-(7-(((1-methylazetidin-3-yl)methyl)amino)thianthren-1-yl)-4-morpholinopyridin-2(1H)-one]
The IC50 of the first is lower: under 100 nM for the first, 100 to 500 nM for the second. The first is the more potent here.

First: CNc1ccc2c(c1)Cc1cccc(-c3cc(N4CCOCC4)cc(=O)[nH]3)c1S2 [Example 3-10, 6-(7-(methylamino)-9H-thioxanthen-4-yl)-4-morpholinopyridin-2(1H)-one]
Second: O=c1cc(N2CCOCC2)cc(-c2cccc3c2Sc2ccc(NCCN4CC(F)(F)C4)cc2S3)[nH]1 [Example 1-10-3, 6-(7-((2-(3,3-Difluoroazetidin-1-yl)ethyl)amino)thianthren-1-yl)-4-morpholinopyridin-2(1H)-one]
The IC50 of the first is higher: 500 to 2000 nM for the first, 100 to 500 nM for the second. The second is the more potent here.
